Reference: US20020052295A1, “Diacyl derivatives of propylene diamine having herbicidal activity” (priority 1999, published 2002)

What was measured:
Settings in all cases: lowest tested rate giving 80% or greater inhibition, approx. 14 days after planting and treating, greenhouse
[1] = test system: DIGSA; experiment: Pre-emergence herbicidal activity on DIGSA (large crabgrass); type: in vivo, Digitaria sanguinalis
Excerpt: (§1) All such uses, and the biological activity enabling such uses, are embraced by the term “herbicidal” herein. Tables 15 and 16 summarize results of tests conducted as described below to determine the pre-emergence herbicidal activity, in the form of a GR80 value, of illustrative compounds of this invention. […] Where herbicidal activity was evident but 80% inhibition was not achieved at the highest rate tested (typically 1000 g/ha), an asterisk (*) is shown in the following tables. Herbicidal activity evident in the form of symptoms of phytotoxicity, in the absence of at least 80% inhibition at any rate, is indicated in the tables by “phyto”. A blank cell in the following tables indicates no herbicidal or phytotoxic response at any rate tested.
(§2) The pre-emergence tests were conducted by the following procedure. Topsoil was sieved to pass through a 1.27 cm screen. Fertilizer was added to the topsoil and the mixture was then sterilized by heating. The topsoil mixture was placed in a pot and compacted to a depth of 1.0 to 1.25 cm from the top of the pot. Seeds of each of several monocotyledonous and dicotyledonous annual plant species were placed on top of the soil. Additional soil was subsequently placed over the seeds to level-fill the pot. A known amount of each test compound dissolved or suspended in an appropriate organic solvent was diluted with a 50:50 mix of acetone and water and applied to the surface of the soil. After treatment the plants were placed in a greenhouse with a 30/21° C. day/night temperature regime where they received 0.64 cm of overhead irrigation. All subsequent watering consisted of a light overhead mist and/or subirrigation as needed for germination and growth.
(§3) Approximately 14 days after planting and treating, the plants were observed and herbicidal efficacy recorded as percent inhibition by comparison with untreated plants.
(§4) The plant species usually regarded as weeds which were utilized in the tests are identified in the tables below according to the following legend, in which “d” indicates a dicotyledonous species and “m” a monocotyledonous species. All monocotyledonous species included in the tests herein are grasses.

[2] = test system: BRAPP; experiment: Pre-emergence herbicidal activity on BRAPP (broadleaf signalgrass); type: in vivo, Brachiaria platyphylla
Excerpt: as §1, §2, §3, §4

[3] = test system: SETFA; experiment: Pre-emergence herbicidal activity on SETFA (giant foxtail); type: in vivo, Setaria faberi
Excerpt: as §1, §2, §3, §4

[4] = test system: DATST; experiment: Pre-emergence herbicidal activity on DATST (jimsonweed); type: in vivo, Datura stramonium
Excerpt: as §1, §2, §3, §4

[5] = test system: SOLNI; experiment: Pre-emergence herbicidal activity on SOLNI (black nightshade); type: in vivo, Solanum nigrum
Excerpt: as §1, §2, §3, §4

[6] = test system: CHEAL; experiment: Pre-emergence herbicidal activity on CHEAL (common lambsquarters); type: in vivo, Chenopodium album
Excerpt: as §1, §2, §3, §4

[7] = test system: PANDI; experiment: Pre-emergence herbicidal activity on PANDI (fall panicum); type: in vivo, Panicum dichotomiflorum
Excerpt: as §1, §2, §3, §4

[8] = test system: POROL; experiment: Pre-emergence herbicidal activity on POROL (common purslane); type: in vivo, Portulaca oleracea
Excerpt: as §1, §2, §3, §4

[9] = test system: ABUTH; experiment: Pre-emergence herbicidal activity on ABUTH (velvetleaf); type: in vivo, Abutilon theophrasti
Excerpt: as §1, §2, §3, §4

[10] = test system: CIRAR; experiment: Pre-emergence herbicidal activity on CIRAR (canada thistle, seedling); type: in vivo, Cirsium arvense
Excerpt: as §1, §2, §3, §4

[11] = test system: AMARE; experiment: Pre-emergence herbicidal activity on AMARE (redroot pigweed); type: in vivo, Amaranthus retroflexus
Excerpt: as §1, §2, §3, §4

[12] = test system: PANMI; experiment: Pre-emergence herbicidal activity on PANMI (wild proso millet); type: in vivo, Panicum miliaceum
Excerpt: as §1, §2, §3, §4

[13] = test system: SORHA; experiment: Pre-emergence herbicidal activity on SORHA (johnsongrass, seedling); type: in vivo, Sorghum halepense
Excerpt: as §1, §2, §3, §4

Compound: CC(CNC(=O)c1cccc(F)c1)NC(=O)c1cccc(C(F)(F)F)c1F (stereo not shown) [Example 142]
- Pre-emergence activity (GR80) on DIGSA [1]: 250 g/ha
- Pre-emergence activity (GR80) on BRAPP [2]: 750 g/ha
- Pre-emergence activity (GR80) on SETFA [3]: 125 g/ha
- Pre-emergence activity (GR80) on DATST [4]: 750 g/ha
- Pre-emergence activity (GR80) on SOLNI [5]: 750 g/ha
- Pre-emergence activity (GR80) on CHEAL [6]: 500 g/ha
- Pre-emergence activity (GR80) on PANDI [7]: 500 g/ha
- Pre-emergence activity (GR80) on PORAL [8]: 125 g/ha
- Pre-emergence activity (GR80) on ABUTH [9]: 1000 g/ha
- Pre-emergence activity (GR80) on CIRAR [10]: 64 g/ha
- Pre-emergence activity (GR80) on AMARE [11]: 125 g/ha
- Pre-emergence activity (GR80) on PANMI [12]: 1000 g/ha

Compound: CC(CNC(=O)c1cccc(C(F)(F)F)c1)NC(=O)c1cccc(Cl)c1 (stereo not shown) [Example 43]
- Pre-emergence activity (GR80) on DIGSA [1]: 750 g/ha
- Pre-emergence activity (GR80) on BRAPP [2]: phyto
- Pre-emergence activity (GR80) on SETFA [3]: phyto
- Pre-emergence activity (GR80) on DATST [4]: phyto
- Pre-emergence activity (GR80) on SORHA [13]: phyto
- Pre-emergence activity (GR80) on SOLNI [5]: phyto
- Pre-emergence activity (GR80) on CHEAL [6]: 500 g/ha
- Pre-emergence activity (GR80) on PANDI [7]: phyto
- Pre-emergence activity (GR80) on PORAL [8]: 500 g/ha
- Pre-emergence activity (GR80) on CIRAR [10]: * (Where herbicidal activity was evident but 80% inhibition was not achieved at the highest rate tested (typically 1000 g/ha), an asterisk (*) is shown)
- Pre-emergence activity (GR80) on AMARE [11]: 250 g/ha
- Pre-emergence activity (GR80) on PANMI [12]: phyto

Compound: CC(CNC(=O)c1cccc(Cl)c1)NC(=O)c1cccc(C(F)(F)F)c1F (stereo not shown) [Example 145]
- Pre-emergence activity (GR80) on DIGSA [1]: 250 g/ha
- Pre-emergence activity (GR80) on SETFA [3]: 750 g/ha
- Pre-emergence activity (GR80) on SOLNI [5]: 1000 g/ha
- Pre-emergence activity (GR80) on CHEAL [6]: 125 g/ha
- Pre-emergence activity (GR80) on PANDI [7]: 500 g/ha
- Pre-emergence activity (GR80) on PORAL [8]: 125 g/ha
- Pre-emergence activity (GR80) on ABUTH [9]: 500 g/ha
- Pre-emergence activity (GR80) on CIRAR [10]: 125 g/ha
- Pre-emergence activity (GR80) on AMARE [11]: 125 g/ha

Compound: CC(CNC(=O)c1cccc(C(F)(F)F)c1)NC(=O)c1cccc(C(F)(F)F)c1OCc1ccccc1 (stereo not shown) [Example 20]
- Pre-emergence activity (GR80) on DIGSA [1]: phyto
- Pre-emergence activity (GR80) on CHEAL [6]: phyto
- Pre-emergence activity (GR80) on PANDI [7]: phyto
- Pre-emergence activity (GR80) on CIRAR [10]: phyto
- Pre-emergence activity (GR80) on AMARE [11]: 1000 g/ha
- Pre-emergence activity (GR80) on PANMI [12]: phyto

Compound: COc1c(C)cccc1C(=O)NC(C)CNC(=O)c1cccc(C(F)(F)F)c1 (stereo not shown) [Example 68]
- Pre-emergence activity (GR80) on DIGSA [1]: phyto
- Pre-emergence activity (GR80) on PANDI [7]: phyto

Compound: CC(CNC(=O)c1cccc(C(F)(F)F)c1)NC(=O)c1c(-c2ccc(F)cc2Cl)noc1C(F)(F)Cl (stereo not shown) [Example 264]
- Pre-emergence activity (GR80) on DATST [4]: 1000 g/ha
- Pre-emergence activity (GR80) on SOLNI [5]: 250 g/ha
- Pre-emergence activity (GR80) on CHEAL [6]: 500 g/ha
- Pre-emergence activity (GR80) on PANDI [7]: 1000 g/ha
- Pre-emergence activity (GR80) on PORAL [8]: 500 g/ha
- Pre-emergence activity (GR80) on AMARE [11]: 250 g/ha

Compound: O=C(NCC(CF)NC(=O)c1cccc(C(F)(F)F)c1)c1cccc(C(F)(F)F)c1 (stereo not shown) [Example 10, N,N′-(3-fluoro-1,2-propanediylbis)-3-(trifluoromethyl) benzamide]
- Pre-emergence activity (GR80) on DIGSA [1]: phyto
- Pre-emergence activity (GR80) on SETFA [3]: phyto
- Pre-emergence activity (GR80) on DATST [4]: phyto
- Pre-emergence activity (GR80) on CHEAL [6]: 750 g/ha
- Pre-emergence activity (GR80) on PANDI [7]: 1000 g/ha
- Pre-emergence activity (GR80) on PORAL [8]: 1000 g/ha
- Pre-emergence activity (GR80) on CIRAR [10]: phyto
- Pre-emergence activity (GR80) on AMARE [11]: 500 g/ha
- Pre-emergence activity (GR80) on PANMI [12]: phyto

Compound: Cc1c(C(=O)NC(C)CNC(=O)c2cccc(C(F)(F)F)c2)cccc1C(F)(F)F (stereo not shown) [Example 16]
- Pre-emergence activity (GR80) on DIGSA [1]: 750 g/ha
- Pre-emergence activity (GR80) on SETFA [3]: 500 g/ha
- Pre-emergence activity (GR80) on DATST [4]: 1000 g/ha
- Pre-emergence activity (GR80) on SOLNI [5]: 500 g/ha
- Pre-emergence activity (GR80) on CHEAL [6]: 1000 g/ha
- Pre-emergence activity (GR80) on PANDI [7]: * (Where herbicidal activity was evident but 80% inhibition was not achieved at the highest rate tested (typically 1000 g/ha), an asterisk (*) is shown)
- Pre-emergence activity (GR80) on ABUTH [9]: * (Where herbicidal activity was evident but 80% inhibition was not achieved at the highest rate tested (typically 1000 g/ha), an asterisk (*) is shown)
- Pre-emergence activity (GR80) on CIRAR [10]: 750 g/ha
- Pre-emergence activity (GR80) on AMARE [11]: 250 g/ha
- Pre-emergence activity (GR80) on PANMI [12]: 1000 g/ha

Compound: Cc1c(I)cccc1C(=O)NC(C)CNC(=O)c1cccc(C(F)(F)F)c1 (stereo not shown) [Example 61]
- Pre-emergence activity (GR80) on DIGSA [1]: 1000 g/ha
- Pre-emergence activity (GR80) on SETFA [3]: 1000 g/ha
- Pre-emergence activity (GR80) on DATST [4]: 1000 g/ha
- Pre-emergence activity (GR80) on SOLNI [5]: 250 g/ha
- Pre-emergence activity (GR80) on CHEAL [6]: 1000 g/ha
- Pre-emergence activity (GR80) on PANDI [7]: 750 g/ha
- Pre-emergence activity (GR80) on PORAL [8]: 500 g/ha
- Pre-emergence activity (GR80) on ABUTH [9]: * (Where herbicidal activity was evident but 80% inhibition was not achieved at the highest rate tested (typically 1000 g/ha), an asterisk (*) is shown)
- Pre-emergence activity (GR80) on CIRAR [10]: 250 g/ha
- Pre-emergence activity (GR80) on AMARE [11]: 750 g/ha

Compound: CC(CNC(=O)c1cccc(C(F)(F)F)c1)NC(=O)c1ccc(F)c(C(F)(F)F)c1 (stereo not shown) [Example 6]
- Pre-emergence activity (GR80) on DIGSA [1]: phyto
- Pre-emergence activity (GR80) on SETFA [3]: phyto
- Pre-emergence activity (GR80) on PANDI [7]: phyto
- Pre-emergence activity (GR80) on AMARE [11]: 1000 g/ha
- Pre-emergence activity (GR80) on PANMI [12]: phyto

Compound: COc1c(C(=O)NC(C)CNC(=O)c2cccc(C(F)(F)F)c2)cccc1C(F)(F)F (stereo not shown) [Example 17]
- Pre-emergence activity (GR80) on DIGSA [1]: 1000 g/ha
- Pre-emergence activity (GR80) on SETFA [3]: phyto
- Pre-emergence activity (GR80) on DATST [4]: phyto
- Pre-emergence activity (GR80) on SOLNI [5]: phyto
- Pre-emergence activity (GR80) on CHEAL [6]: 1000 g/ha
- Pre-emergence activity (GR80) on PANDI [7]: phyto
- Pre-emergence activity (GR80) on PORAL [8]: 1000 g/ha
- Pre-emergence activity (GR80) on AMARE [11]: 1000 g/ha

Compound: Cc1c(Cl)cccc1C(=O)NCC(C)NC(=O)c1cccc(Cl)c1C (stereo not shown) [Example 203]
- Pre-emergence activity (GR80) on DATST [4]: phyto
- Pre-emergence activity (GR80) on SOLNI [5]: phyto
- Pre-emergence activity (GR80) on CHEAL [6]: 1000 g/ha
- Pre-emergence activity (GR80) on ABUTH [9]: phyto
- Pre-emergence activity (GR80) on CIRAR [10]: phyto

Compound: CCOc1c(F)cccc1C(=O)N[C@H](C)CNC(=O)c1cccc(C(F)(F)F)c1 [Example 41, R-2-ethoxy-3-fluoro-N-[1-methyl-2-(3-trifluoromethyl)phenylcarbonylamino]ethylbenzamide]
- Pre-emergence activity (GR80) on SETFA [3]: 1000 g/ha
- Pre-emergence activity (GR80) on DATST [4]: 1000 g/ha
- Pre-emergence activity (GR80) on SORHA [13]: phyto
- Pre-emergence activity (GR80) on SOLNI [5]: phyto
- Pre-emergence activity (GR80) on CHEAL [6]: 750 g/ha
- Pre-emergence activity (GR80) on PANDI [7]: 750 g/ha
- Pre-emergence activity (GR80) on PORAL [8]: 500 g/ha
- Pre-emergence activity (GR80) on AMARE [11]: 250 g/ha
- Pre-emergence activity (GR80) on PANMI [12]: phyto
